Values joined by “and” are separate entries in the source; they are usually repeats but may differ in a detail not shown here. Equal entries are not always repeated. Inconclusive results and toxic doses are left out. Square brackets hold non-standard residues; d marks the D form. Peptide text beside a SMILES is read from it. * marks the point of attachment. ξ: configuration not given here. Cbz = O=C(OCc1ccccc1)*; ξI = CCC(C)C(N)C(=O)O
Tested on: P388 leukemia ip, CD2F1 mice, survival T/C
Experiment: NCI In Vivo Anticancer Drug Screen. Data for tumor model P388 Leukemia (intraperitoneal) in CD2F1 (CDF1) mice
Conditions: endpoint: median survival time, higher = longer survival
In short: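 Mice carrying the transplanted tumor received test compound or vehicle. Survival was recorded in each group, and the value is the treated-group measurement divided by that of the vehicle-treated control group.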

[1] = dose: 50.0 mg/kg/injection, schedule: Q01DX005 (ip), vehicle: Klucel (hydroxypropylcellulose) (HPC)
[2] = dose: 100.0 mg/kg/injection, schedule: Q01DX005 (ip), vehicle: Klucel (hydroxypropylcellulose) (HPC)
[3] = dose: 200.0 mg/kg/injection, schedule: Q01DX005 (ip), vehicle: Klucel (hydroxypropylcellulose) (HPC)
[4] = dose: 100.0 mg/kg/injection, schedule: Q01DX009 (ip), vehicle: saline with Tween-80
[5] = dose: 200.0 mg/kg/injection, schedule: Q01DX009 (ip), vehicle: saline with Tween-80
[6] = dose: 25.0 mg/kg/injection, schedule: Q01DX009 (ip), vehicle: saline with Tween-80
[7] = dose: 50.0 mg/kg/injection, schedule: Q01DX009 (ip), vehicle: saline with Tween-80
[8] = dose: 12.5 mg/kg/injection, schedule: Q01DX005 (ip), vehicle: Klucel (hydroxypropylcellulose) (HPC)
[9] = dose: 25.0 mg/kg/injection, schedule: Q01DX005 (ip), vehicle: Klucel (hydroxypropylcellulose) (HPC)
[10] = dose: 100.0 mg/kg/injection, schedule: Q04DX002 (ip), vehicle: saline with Tween-80
[11] = dose: 200.0 mg/kg/injection, schedule: Q04DX002 (ip), vehicle: saline with Tween-80
[12] = dose: 6.25 mg/kg/injection, schedule: Q01DX009 (ip), vehicle: saline with Tween-80
[13] = dose: 12.5 mg/kg/injection, schedule: Q01DX009 (ip), vehicle: saline with Tween-80
[14] = dose: 60.0 mg/kg/injection, schedule: Q01DX005 (ip), vehicle: saline with Tween-80
[15] = dose: 120.0 mg/kg/injection, schedule: Q01DX005 (ip), vehicle: saline with Tween-80
[16] = dose: 240.0 mg/kg/injection, schedule: Q01DX005 (ip), vehicle: saline with Tween-80

O=C(Nc1ccc(Cl)cc1)Nc1nnc(-c2cccc(-c3nnc(NC(=O)Nc4ccc(Cl)cc4)o3)c2)o1
T/C (dose: 60.0 mg/kg/injection, schedule: Q01DX005 (ip), vehicle: Klucel (hydroxypropylcellulose) (HPC)): 94 % of control
T/C (dose: 120.0 mg/kg/injection, schedule: Q01DX005 (ip), vehicle: Klucel (hydroxypropylcellulose) (HPC)): 96 % of control
T/C (dose: 240.0 mg/kg/injection, schedule: Q01DX005 (ip), vehicle: Klucel (hydroxypropylcellulose) (HPC)): 97 % of control

COC1C(C(=O)CS(=O)Cc2ccccc2)OC2OC(C)(C)OC21 (centres undefined)
T/C (dose: 60.0 mg/kg/injection, schedule: Q01DX005 (ip), vehicle: saline): 104 % of control and 98 % of control
T/C (dose: 120.0 mg/kg/injection, schedule: Q01DX005 (ip), vehicle: saline): 103 % of control
T/C (dose: 240.0 mg/kg/injection, schedule: Q01DX005 (ip), vehicle: saline): 106 % of control and 108 % of control

O=C(O)c1cccc2c1C(=O)c1ccccc1-2
T/C [1]: 95 % of control
T/C [2]: 100 % of control
T/C [3]: 105 % of control

CCC(C)N(C)/N=N/c1nc[nH]c1C(N)=O (centres undefined)
T/C [4]: 115 % of control
T/C (dose: 100.0 mg/kg/injection, schedule: Q04DX003 (ip), vehicle: saline with Tween-80): 95 % of control
T/C [5]: 105 % of control
T/C (dose: 200.0 mg/kg/injection, schedule: Q04DX003 (ip), vehicle: saline with Tween-80): 113 % of control
T/C (dose: 400.0 mg/kg/injection, schedule: Q04DX003 (ip), vehicle: saline with Tween-80): 113 % of control

OC1CCCSc2ccccc21 (centres undefined)
T/C [6]: 100 % of control and 95 % of control
T/C (dose: 50.0 mg/kg/injection, schedule: Q01DX009 (ip), vehicle: saline + alcohol): 99 % of control
T/C [7]: 100 % of control and 97 % of control
T/C (dose: 100.0 mg/kg/injection, schedule: Q01DX009 (ip), vehicle: saline + alcohol): 96 % of control
T/C [4]: 98 % of control
T/C (dose: 200.0 mg/kg/injection, schedule: Q01DX009 (ip), vehicle: saline + alcohol): 105 % of control
T/C [5]: 118 % of control
T/C (dose: 400.0 mg/kg/injection, schedule: Q01DX009 (ip), vehicle: saline + alcohol): 103 % of control

CCOC(=C\C(=O)NC)/C=C/c1ccc([N+](=O)[O-])cc1
T/C (dose: 6.25 mg/kg/injection, schedule: Q01DX005 (ip), vehicle: Klucel (hydroxypropylcellulose) (HPC)): 117 % of control
T/C [8]: 91 % of control
T/C [9]: 91 % of control
T/C [1]: 86 % of control
T/C [2]: 88 % of control

O=C(NC(=S)c1ccc(Br)cc1)NS(=O)(=O)c1ccccc1
T/C (dose: 100.0 mg/kg/injection, schedule: Q01DX001 (ip), vehicle: saline with Tween-80): 107 % of control
T/C (dose: 200.0 mg/kg/injection, schedule: Q01DX001 (ip), vehicle: saline with Tween-80): 102 % of control
T/C (dose: 400.0 mg/kg/injection, schedule: Q01DX001 (ip), vehicle: saline with Tween-80): 102 % of control

CC(=O)OC1C2CCC3C(C)(O)C4CC(O)C(C)(C)C4(O)C(O)CC13CC2(C)O (centres undefined)
T/C (dose: 0.09 mg/kg/injection, schedule: Q01DX009 (ip), vehicle: saline): 100 % of control
T/C (dose: 0.19 mg/kg/injection, schedule: Q01DX009 (ip), vehicle: saline): 98 % of control
T/C (dose: 0.25 mg/kg/injection, schedule: Q01DX009 (ip), vehicle: saline): 116 % of control
T/C (dose: 0.39 mg/kg/injection, schedule: Q01DX009 (ip), vehicle: saline): 100 % of control and 89 % of control
T/C (dose: 0.5 mg/kg/injection, schedule: Q01DX009 (ip), vehicle: saline): 108 % of control
T/C (dose: 1.0 mg/kg/injection, schedule: Q01DX009 (ip), vehicle: saline): 107 % of control

CNC(=S)NNc1nc(N(C)C)nc(N(C)C)n1
T/C [10]: 98 % of control
T/C [11]: 92 % of control
T/C (dose: 400.0 mg/kg/injection, schedule: Q04DX002 (ip), vehicle: saline with Tween-80): 93 % of control

Nc1nc([Se])c2ncn(C3OC(CO)C(O)C3O)c2n1 (centres undefined)
T/C (dose: 4.0 mg/kg/injection, schedule: Q01DX009 (ip), vehicle: saline): 150 % of control and 157 % of control
T/C (dose: 6.25 mg/kg/injection, schedule: Q01DX009 (ip), vehicle: saline): 159 % of control
T/C (dose: 8.0 mg/kg/injection, schedule: Q01DX009 (ip), vehicle: saline): 164 % of control and 179 % of control
T/C (dose: 8.0 mg/kg/injection, schedule: Q01DX009 (ip), vehicle: water): 157 % of control
T/C (dose: 12.5 mg/kg/injection, schedule: Q01DX009 (ip), vehicle: saline): 183 % of control
T/C (dose: 16.0 mg/kg/injection, schedule: Q01DX009 (ip), vehicle: saline): 157 % of control and 198 % of control and 202 % of control
T/C (dose: 16.0 mg/kg/injection, schedule: Q01DX009 (ip), vehicle: water): 160 % of control and 161 % of control
T/C (dose: 25.0 mg/kg/injection, schedule: Q01DX009 (ip), vehicle: saline): 186 % of control
T/C (dose: 32.0 mg/kg/injection, schedule: Q01DX009 (ip), vehicle: saline): 121 % of control and 247 % of control and 98 % of control
T/C (dose: 32.0 mg/kg/injection, schedule: Q01DX009 (ip), vehicle: water): 190 % of control and 191 % of control
T/C (dose: 50.0 mg/kg/injection, schedule: Q01DX009 (ip), vehicle: saline): 96 % of control

ClCSc1nc2ccccc2o1
T/C (dose: 50.0 mg/kg/injection, schedule: Q04DX002 (ip), vehicle: saline with Tween-80): 102 % of control
T/C [10]: 102 % of control
T/C [11]: 107 % of control

c1cc2c3c(c1)c1cc4c(cc1c[n+]3CCC2)OCO4
T/C (dose: 3.13 mg/kg/injection, schedule: Q01DX009 (ip), vehicle: water): 110 % of control
T/C (dose: 25.0 mg/kg/injection, schedule: Q01DX009 (ip), vehicle: water): 119 % of control and 120 % of control

Nc1nc(N)c2cc(S(=O)(=O)c3cccc(C(F)(F)F)c3)ccc2n1
T/C [7]: 113 % of control
T/C [4]: 117 % of control
T/C [5]: 106 % of control

C1CC1C(=NN=C(C1CC1)C1CC1)C1CC1
T/C [12]: 102 % of control
T/C [13]: 101 % of control
T/C [6]: 96 % of control

O=[N+]([O-])c1ccc(/C=C(/c2ccc([N+](=O)[O-])o2)S(=O)(=O)c2ccccc2)cc1
T/C (dose: 50.0 mg/kg/injection, schedule: Q01DX009 (ip), vehicle: suspension in saline): 97 % of control
T/C (dose: 100.0 mg/kg/injection, schedule: Q01DX009 (ip), vehicle: suspension in saline): 103 % of control
T/C (dose: 200.0 mg/kg/injection, schedule: Q01DX009 (ip), vehicle: suspension in saline): 97 % of control

CCC(C)C(NC(=O)OCc1ccccc1)C(=O)NCC(=O)O (centres undefined) (Cbz-[ξI]-Gly-OH)
T/C [1]: 97 % of control
T/C [2]: 97 % of control
T/C [3]: 90 % of control

O=C(O)COC1CC(=O)N2c3ccccc3C34CCN5C(=O)C(=O)C(CC53)C1C24 (centres undefined)
T/C [14]: 96 % of control
T/C [15]: 95 % of control
T/C [16]: 88 % of control

O=C1/C(=C/c2cccnc2)CCc2ccccc21
T/C [6]: 104 % of control
T/C (dose: 50.0 mg/kg/injection, schedule: Q01DX009 (ip), vehicle: Klucel (hydroxypropylcellulose) (HPC)): 116 % of control
T/C [7]: 108 % of control
T/C (dose: 100.0 mg/kg/injection, schedule: Q01DX009 (ip), vehicle: Klucel (hydroxypropylcellulose) (HPC)): 102 % of control
T/C [4]: 105 % of control
T/C (dose: 200.0 mg/kg/injection, schedule: Q01DX009 (ip), vehicle: Klucel (hydroxypropylcellulose) (HPC)): 109 % of control
T/C [5]: 95 % of control

C[CH2][Ge]([CH2]C)[O]C(=O)C(=O)[O][Ge]([CH2]C)[CH2]C
T/C [8]: 100 % of control
T/C [9]: 103 % of control
T/C [1]: 118 % of control

COC(=O)C1(OC)C(=O)NC2=C1C(=O)c1ccccc1C2=O (centres undefined)
T/C (dose: 50.0 mg/kg/injection, schedule: Q01DX005 (ip), vehicle: saline with Tween-80): 94 % of control
T/C (dose: 100.0 mg/kg/injection, schedule: Q01DX005 (ip), vehicle: saline with Tween-80): 105 % of control
T/C (dose: 200.0 mg/kg/injection, schedule: Q01DX005 (ip), vehicle: saline with Tween-80): 106 % of control

C=CC(=NC(C)(C)C)Nc1ccccc1C#N
T/C (dose: 3.12 mg/kg/injection, schedule: Q01DX009 (ip), vehicle: saline with Tween-80): 106 % of control
T/C [12]: 106 % of control
T/C [13]: 100 % of control and 117 % of control

O=[N+]([O-])c1cc(I)c(O)c(/C=N/NS(=O)(=O)c2ccc(F)cc2)c1
T/C [14]: 104 % of control
T/C [15]: 105 % of control
T/C [16]: 101 % of control

Reference: PubChem BioAssay AID330 (DTP/NCI, 2004)
